This is an account of results in EP4653437A2 (Innovo Therapeutics Inc., priority 2023, dated 2024).

One experiment has as its system A549 cells. Put plainly: Measurement of PGE2-increasing activity in A549 cells (IL-1β stimulated, PGE2 quantified in supernatant). The experiment is classed as cell-based. The settings on record: Homo sapiens, 24 h; concentration of 1 µM of each compound; IL-1β treated A549 cells; read-out: Increased PGE2 production in A549 cells. A digest of the protocol:
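A549 cells grown 24 h in F12K with 10% FBS, then switched to serum-free medium with or without IL-1β and compound (0.1% DMSO final). After 24 h at 37 °C, 5% CO2, supernatant PGE2 quantified by immunoassay.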

A further experiment has as its target T1, human 15-PGDH (Homo sapiens, UniProt P15428).
T1 construct: purchased R&D System 5660-DH
T1 sequence (P15428 1-266): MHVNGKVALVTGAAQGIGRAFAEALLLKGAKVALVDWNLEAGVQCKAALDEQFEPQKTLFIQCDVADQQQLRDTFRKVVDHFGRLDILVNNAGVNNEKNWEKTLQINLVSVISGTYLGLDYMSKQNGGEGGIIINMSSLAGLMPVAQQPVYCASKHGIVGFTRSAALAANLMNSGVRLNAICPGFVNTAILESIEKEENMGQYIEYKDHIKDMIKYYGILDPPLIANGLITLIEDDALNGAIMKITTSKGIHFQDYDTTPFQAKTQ
The experiment is described as follows: Evaluation of 15-PGDH inhibitory activity (fluorescence enzyme assay, NAD+/PGE2). The settings on record: human 15-PGDH enzyme, fluorescence Vmax. The experiment is classed as biochemical. The procedure:
15-PGDH inhibition activity of Example compounds was measured as follows. 6.7 ng of human 15-PGDH (R&D System# 5660-DH) enzyme (10 µL) was added to a black 96 well plate, 60 µL of buffer (50 mM Tris-HCl, pH 7.5, 0.01% Tween 20) was added, and 10 µL of 200 µM β-Nicotinamide adenine dinucleotide sodium salt (Sigma, Cat# N0632-5G) was added. 10 µL of (10x) compound solution in DMSO was added and reacted for 10 minutes at room temperature.

Take `O=C(c1cnn2c(-c3cnc(N4CCOC4=O)nc3)cccc12)N1CCCCC1` [Example 308, 3-(5-(3-(piperidine-1-carbonyl)pyrazolo[1,5-a]pyridin-7-yl)pyrimidin-2-yl)oxazolidin-2-one]: in the experiment with A549 cells, the fold induction at 1 µM is over 1.5. Besides, at human 15-PGDH, the IC50 is at most 100 nM.
Turning to `CN(C)c1cc(-c2cccc3c(C(=O)N4CCCCC4)cnn23)ccc1C#N` [Example 23, 2-(dimethylamino)-4-(3-(piperidine-1-carbonyl)pyrazolo[1,5-a]pyridin-7-yl)benzonitrile], the fold induction at 1 µM with A549 cells was over 1.5. On human 15-PGDH, the IC50 was at most 100 nM.
For `O=C1NC(=O)/C(=C/c2cccc(-c3cccc4c(C(=O)N5CCCCC5)cnn34)c2)S1` [Example 119, (Z)-5-(3-(3-(piperidine-1-carbonyl)pyrazolo[1,5-a]pyridin-7-yl)benzylidene)thiazolidine-2,4-dione], the fold induction at 1 µM in the experiment with A549 cells was over 1.5. The IC50 against human 15-PGDH is at most 100 nM.
Consider `CNC(=O)c1ncc(-c2cccc3c(C(=O)N4CCCCC4)cnn23)cc1Cl` [Example 262, 3-chloro-N-methyl-5-[3-(piperidine-1-carbonyl)pyrazolo[1,5-a]pyridin-7-yl]pyridine-2-carboxamide], for which, in the experiment on A549 cells, the fold induction at 1 µM was over 1.5. Also, the IC50 at human 15-PGDH was at most 100 nM.
Take `O=C(c1cnn2c(-c3ccc(-c4noc(C(F)(F)F)n4)cc3)cccc12)N1CCCCC1` [Example 361, 1-piperidyl-[7-[4-[5-(trifluoromethyl)-1,2,4-oxadiazol-3-yl]phenyl]pyrazolo[1,5-a]pyridin-3-yl]methanone]: in the experiment with A549 cells, the fold induction at 1 µM was over 1.5. In addition, the IC50 on human 15-PGDH is at most 100 nM.
In the same order, the values of `CN(C)c1ncc(-c2cccc3c(C(=O)N4CCCCC4)cnn23)cc1C#N` [Example 270, 2-(dimethylamino)-5-(3-(piperidine-1-carbonyl)pyrazolo[1,5-a]pyridin-7-yl)nicotinonitrile] are over 1.5 and at most 100 nM.
For the compound `O=C1CN(C(=O)c2cncc(-c3cccc4c(C(=O)N5CCCCC5)cnn34)c2)CC(=O)N1` [Example 204, 4-[5-[3-(piperidine-1-carbonyl)pyrazolo[1,5-a]pyridin-7-yl]pyridine-3-carbonyl]piperazine-2,6-dione], the fold induction at 1 µM in the experiment on A549 cells was under 1.5. At human 15-PGDH, this compound returned an IC50 of at most 100 nM.
For `O=C(NC1CNC1)c1cncc(-c2cccc3c(C(=O)N4CCCCC4)cnn23)c1` [Example 200, N-(azetidin-3-yl)-5-(3-(piperidine-1-carbonyl)pyrazolo[1,5-a]pyridin-7-yl)nicotinamide], the fold induction at 1 µM in the experiment on A549 cells was over 1.5. Also, the IC50 on human 15-PGDH was at most 100 nM.
For the compound `O=C(c1cnn2c(-c3cccc(-c4nnn[nH]4)c3)cccc12)N1CCCCC1` [Example 113, (7-(3-(1H-tetrazol-5-yl)phenyl)pyrazolo[1,5-a]pyridin-3-yl)(piperidin-1-yl)methanone], in the experiment on A549 cells, the fold induction at 1 µM is over 1.5. The compound also gave an IC50 on human 15-PGDH of at most 100 nM.
For `CCCCC(=O)c1cnn2c(-c3cnc4ccccc4c3)cccc12` [Example 151, 1-(7-(quinolin-3-yl)pyrazolo[1,5-a]pyridin-3-yl)pentan-1-one], in the experiment with A549 cells, the fold induction at 1 µM is over 1.5. The IC50 at human 15-PGDH was at most 100 nM.
For the compound `CC(C)N1CCN(C(=O)c2ccc(-c3cccc4c(C(=O)N5CCCCC5)cnn34)cn2)CC1` [Example 84, (4-isopropylpiperazin-1-yl)(5-(3-(piperidine-1-carbonyl)pyrazolo[1,5-a]pyridin-7-yl)pyridin-2-yl)methanone], the fold induction at 1 µM in the experiment with A549 cells was over 1.5. For the same compound, the IC50 at human 15-PGDH was at most 100 nM.
In the same order, the values of `O=C(c1cnn2c(-c3ccc(F)c(-c4noc(=O)[nH]4)c3)cccc12)N1CCCCC1` [Example 275, 3-[2-fluoro-5-[3-(piperidine-1-carbonyl)pyrazolo[1,5-a]pyridin-7-yl]phenyl]-4H-1,2,4-oxadiazol-5-one] are over 1.5 and at most 100 nM.
Turning to `O=C(c1cnn2c(-c3ccccc3Cl)cccc12)N1CCCCC1` [Example 264, (7-(2-chlorophenyl)pyrazolo[1,5-a]pyridin-3-yl)(piperidin-1-yl)methanone], the fold induction at 1 µM with A549 cells was over 1.5. Also, the IC50 against human 15-PGDH was at most 100 nM.
Regarding `O=C(c1cnn2c(-c3cccc(F)n3)cccc12)N1CCCCC1` [Example 271, (7-(6-fluoropyridin-2-yl)pyrazolo[1,5-a]pyridin-3-yl)(piperidin-1-yl)methanone], the fold induction at 1 µM in the experiment on A549 cells is over 1.5. At human 15-PGDH, this compound returned an IC50 of at most 100 nM.
For `O=C(c1cnn2c(-c3ccc(-c4cn[nH]c4)cc3)cccc12)N1CCCCC1` [Example 346, 1-piperidyl-[7-[4-(1H-pyrazol-4-yl)phenyl]pyrazolo[1,5-a]pyridin-3-yl]methanone] the same measures were over 1.5 and at most 100 nM.
In the same order, the values of `Cc1cnc(-c2ccc(-c3cccc4c(C(=O)N5CCCCC5)cnn34)cc2)s1` [Example 351, [7-[4-(5-methylthiazol-2-yl)phenyl]pyrazolo[1,5-a]pyridin-3-yl]-(1-piperidyl)methanone] are over 1.5 and at most 100 nM.
Regarding `O=C1NCc2ccc(-c3cccc4c(C(=O)N5CCCC(F)(F)C5)cnn34)cc21` [Example 382, 6-(3-(3,3-difluoropiperidine-1-carbonyl)pyrazolo[1,5-a]pyridin-7-yl)isoindolin-1-one], the fold induction at 1 µM with A549 cells is over 1.5. This compound also displayed an IC50 on human 15-PGDH of at most 100 nM.
On to `O=C(c1cnn2c(-c3ccc(-c4noc(=O)[nH]4)cc3F)cccc12)N1CCCCC1` [Example 295, 3-[3-fluoro-4-[3-(piperidine-1-carbonyl)pyrazolo[1,5-a]pyridin-7-yl]phenyl]-4H-1,2,4-oxadiazol-5-one], for which, in the experiment with A549 cells, the fold induction at 1 µM is over 1.5. On human 15-PGDH, the IC50 was at most 100 nM.
For `N#Cc1cc(-c2cccc3c(C(=O)N4CCCCC4)cnn23)cc([N+](=O)[O-])c1` [Example 312, 3-nitro-5-(3-(piperidine-1-carbonyl)pyrazolo[1,5-a]pyridin-7-yl)benzonitrile] the same measures were over 1.5 and at most 100 nM.
Take `O=C(c1cnn2c(NCc3ccc(Cl)cc3)cccc12)N1CCCCC1` [Example 238, [7-[(4-chlorophenyl)methylamino]pyrazolo[1,5-a]pyridin-3-yl]-(1-piperidyl)methanone]: in the experiment with A549 cells, the fold induction at 1 µM is over 1.5. Besides, the IC50 on human 15-PGDH was at most 100 nM.
`CC1c2cc(-c3cccc4c(C(=O)N5CCCCC5)cnn34)cnc2C(=O)N1C` (centres unmarked) [Example 280, 5,6-dimethyl-3-(3-(piperidine-1-carbonyl)pyrazolo[1,5-a]pyridin-7-yl)-5,6-dihydro-7H-pyrrolo[3,4-b]pyridin-7-one]: in the experiment with A549 cells, the fold induction at 1 µM was over 1.5. This compound yielded an IC50 against human 15-PGDH of at most 100 nM.
For `O=C(c1cnn2c(-c3cc(Cl)cnc3F)cccc12)N1CCCCC1` [Example 283, (7-(5-chloro-2-fluoropyridin-3-yl)pyrazolo[1,5-a]pyridin-3-yl)(piperidin-1-yl)methanone], the fold induction at 1 µM in the experiment with A549 cells is under 1.5. The half-maximal inhibitory concentration (IC50) against human 15-PGDH is at most 100 nM.
With `O=C(c1cnn2c(-c3ccc4occc4c3)cccc12)N1CCCCC1` [Example 127, (7-(benzofuran-5-yl)pyrazolo[1,5-a]pyridin-3-yl)(piperidin-1-yl)methanone], the fold induction at 1 µM in the experiment with A549 cells is over 1.5. This compound also displayed an IC50 against human 15-PGDH of at most 100 nM.
Regarding `CCC1CCCN(C(=O)c2cnn3c(-c4ccc(N5CCOC5=O)nc4)cccc23)C1` (centres unmarked) [Example 354, 3-(5-(3-(3-ethylpiperidine-1-carbonyl)pyrazolo[1,5-a]pyridin-7-yl)pyridin-2-yl)oxazolidin-2-one], the fold induction at 1 µM in the experiment with A549 cells is over 1.5. The IC50 on human 15-PGDH is at most 100 nM.
For `Cc1nc(-c2ccc(-c3cccc4c(C(=O)N5CCCCC5)cnn34)cc2F)no1` [Example 303, [7-[3-fluoro-4-(5-methyl-1,2,4-oxadiazol-3-yl)phenyl]pyrazolo[1,5-a]pyridin-3-yl]-(1-piperidyl)methanone] the same measures were over 1.5 and at most 100 nM.
Consider `O=C(c1cnn2c(-c3ccc(F)nc3)cccc12)N1CCCC(C(F)(F)F)C1` (centres unmarked) [Example 338, (7-(6-fluoropyridin-3-yl)pyrazolo[1,5-a]pyridin-3-yl)(3-(trifluoromethyl)piperidin-1-yl)methanone], for which the fold induction at 1 µM with A549 cells was over 1.5. For the same compound, on human 15-PGDH, the IC50 is at most 100 nM.
For the compound `O=C(Nc1cccnc1)c1cccc(-c2cccc3c(C(=O)N4CCCCC4)cnn23)c1` [Example 37, 3-(3-(piperidine-1-carbonyl)pyrazolo[1,5-a]pyridin-7-yl)-N-(pyridin-3-yl)benzamide], the fold induction at 1 µM in the experiment on A549 cells is over 1.5. The same compound came in with an IC50 against human 15-PGDH of at most 100 nM.
Regarding `O=C(c1cnn2c(-c3ccc(N(Cc4ccccc4[N+](=O)[O-])C(=O)c4cccnc4)cc3)cccc12)N1CCCCC1` [Example 340, N-(2-nitrobenzyl)-N-(4-(3-(piperidine-1-carbonyl)pyrazolo|[1,5-a]pyridin-7-yl)phenyl)nicotinamide], in the experiment on A549 cells, the fold induction at 1 µM is over 1.5. At human 15-PGDH, this compound gave an IC50 of at most 100 nM.

By IC50 is commonly meant the concentration that inhibits the measured activity by half. Low values mean inhibition by little substance, high ones a need for much substance.
